# Like-named read-outs stand apart in the source and are kept apart here.
# Experiment: Pharmacokinetics in mice after oral or intravenous dosing
# Type: in vivo
# Protocol: Plasma concentrations were measured by LC-MS/MS. Non-compartmental PK parameters were calculated using Phoenix WinNonlin. Human half-life predictions were derived by allometric scaling for half-life (t1/2): t1/2,human = t1/2,mouse × (Whuman/Wmouse)^0.25, where W = body weight. The exponent 0.25 is commonly used for time-based pharmacokinetic parameters. We assume an average mouse weight of 0.025 kg and an average human weight of 70 kg.
# [1] = mouse, plasma, iv, 10 mg/kg, mice, IV 10 mg/kg, average of 3 mice
# [2] = mouse, plasma, po, 10 mg/kg, mice, PO 10 mg/kg, average of 3 mice
smiles,measurement,setting,value
"C[C@@H]1CN(C)CC[C@@H]1c1cc(-c2ccncc2)c(-c2ccc(F)cc2)[nH]1.Cl.Cl [RUPB-61, 4-{5-[(3S,4S)-1,3-Dimethylpiperidin-4-yl]-2-(4-fluorophenyl)-1H-pyrrol-3-yl}pyridine Dihydrochloride]",human half-life range by allometric scaling,"exponent 0.25, mouse 0.025 kg, human 70 kg",67.5 to 90 h
same,half-life in humans by allometric scaling,"humans, scaled from mouse oral half-life",48 to 96 h
same,plasma exposure maintained,"mice, 10 mg/kg, for 24 h",> 100 nM
same,Vss obs,"mice, IV 10 mg/kg, average of 3 mice, 10 mg/kg",47.29 L/kg
same,Bioavailability,"mice, PO vs IV 10 mg/kg, 10 mg/kg",91 %F
same,AUC(0-t),[1],7.43 µM·h
same,half-life,[1],11.8 h
same,AUC(0-inf),"mouse, plasma, iv, 10 mg/kg, mice, IV 10 mg/kg, average of 3 mice, read-out: AUC INF_obs",9.8 µM·h
same,clearance,"mouse, plasma, iv, 10 mg/kg, mice, IV 10 mg/kg, average of 3 mice, read-out: Cl_obs",49.2 mL/min/kg
same,Vd,"mouse, plasma, iv, 10 mg/kg, mice, IV 10 mg/kg, average of 3 mice, read-out: Vss obs",47.3 L/kg
same,clearance,"mouse, plasma, other: oral and intravenous, 10 mg/kg, mice, 10 mg/kg oral and intravenous, read-out: relative clearance",~50 mL/min/kg
same,Cmax,[2],630 nM
same,Tmax,[2],4.17 h
same,AUC(0-inf),"mouse, plasma, po, 10 mg/kg, mice, PO 10 mg/kg, average of 3 mice, read-out: AUCINF_obs",8.9 µM·h

# Reference: PMC13422867, “An orally available PfPKG inhibitor blocks Plasmodium’s infection of the liver” (PLOS Pathogens, 2026)
